From patent US7087623B2, “Thiazole and other heterocyclic ligands for mammalian dopamine, muscarinic and serotonin receptors and transporters, and methods of use thereof” (Sepracor Inc., priority 2001, dated 2006)
Where two headings read alike, the source gives them in different places.

Tests used:
[1] = target: T1, human dopamine D3 receptor (Homo sapiens, UniProt P35462); assay: Radioligand binding assay, human dopamine D3 receptors ([3H]Spiperone)
T1 construct: expressed in transfected cells; host or cells: CHO
T1 sequence (P35462 whole entry): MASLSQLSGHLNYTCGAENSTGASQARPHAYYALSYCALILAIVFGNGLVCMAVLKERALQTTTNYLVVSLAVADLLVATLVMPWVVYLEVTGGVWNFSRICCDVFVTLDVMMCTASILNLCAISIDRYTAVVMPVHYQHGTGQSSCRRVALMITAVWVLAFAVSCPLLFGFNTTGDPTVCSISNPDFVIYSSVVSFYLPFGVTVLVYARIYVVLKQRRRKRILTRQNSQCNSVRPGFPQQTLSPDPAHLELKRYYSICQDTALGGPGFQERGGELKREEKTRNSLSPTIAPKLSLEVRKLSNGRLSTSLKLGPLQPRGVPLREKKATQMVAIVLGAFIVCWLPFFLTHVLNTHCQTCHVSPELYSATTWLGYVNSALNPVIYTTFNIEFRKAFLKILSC
Procedure: The assay for binding to human D3 receptors was conducted according to Sokoloff, P. et al. Nature 1990, 347, 146.
CHO cells stably transfected with a plasmid encoding the human dopamine D3 receptor were used to prepare membranes in modified Tris-HCl pH 7.4 buffer using standard techniques. […] Non-specific binding was estimated in the presence of 25 μM S-(−)-sulpiride. […] See Sokoloff, P. et al. “Molecular cloning and characterization of a novel dopamine receptor (D3) as a target for neuroleptics” Nature 347: 146–151, 1990.
(§1) The human 5-HT2a and 5-HT2b screens were conducted according to Bonhaus, D. W. et al. Br. J. Pharmacol. 1995, 115, 622. The human […], W. A. et al. J. Neurochem. 1997, 69, 1449. The human 5-HT6 screen was conducted according to Monsama, F. J. et al. Mol. Pharmacol. 1993, 43, 320. The assay to human D3 receptors was conducted according to Sokoloff, P. et al. Nature 1990, 347;146. The human dopamine transporter assay was conducted according to Gu, H. et. al. J. Biol. Chem. 1994, 269 (10);7124; and Giros, B. et al. Trends. Pharmacol. Sci. 1993, 14: 43. The human muscarinic M1–M4 screens were conducted according to Buckley N. J. et al. Mol. Pharmacol. 1989, 35:469.

[2] = target: T2, human serotonin 5-HT2C receptor (Homo sapiens, UniProt P28335); assay: Radioligand binding assay, human 5-HT2C receptors ([3H]Mesulergine)
T2 construct: expressed in transfected cells; host or cells: CHO-K1
T2 sequence (P28335 33-458): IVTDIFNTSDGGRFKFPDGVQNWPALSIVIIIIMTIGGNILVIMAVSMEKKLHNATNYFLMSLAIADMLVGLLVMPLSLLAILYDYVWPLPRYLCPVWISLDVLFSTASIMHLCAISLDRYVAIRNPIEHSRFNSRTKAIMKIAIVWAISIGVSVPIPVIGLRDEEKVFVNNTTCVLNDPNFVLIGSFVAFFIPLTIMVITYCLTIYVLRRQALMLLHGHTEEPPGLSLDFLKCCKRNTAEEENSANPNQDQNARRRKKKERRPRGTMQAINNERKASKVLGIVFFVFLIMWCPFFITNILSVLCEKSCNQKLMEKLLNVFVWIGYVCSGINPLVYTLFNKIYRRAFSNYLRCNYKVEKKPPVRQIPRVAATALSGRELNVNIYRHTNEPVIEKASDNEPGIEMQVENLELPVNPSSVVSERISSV
Procedure: (§2) The human 5-HT2a and 5-HT2b screens were conducted according to Bonhaus, D. W. et al. Br. J. Pharmacol. 1995, 115, 622. The human 5-HT2c screen was conducted according to Wolf, W. A. et al. J. Neurochem. 1997, 69, 1449. The human 5-HT6 screen was conducted according to Monsma, F. J. et al. Mol. Pharmacol. 1993, 43, 320.
CHO-K1 cells stably transfected with a plasmid encoding the human serotonin 5-HT2C receptor were used to prepare membranes in modified Tris-HCl pH 7.7 buffer using standard techniques. […] Non-specific binding was estimated in the presence of 1 μM mianserin. […] See Wolf, W. A. and Schutz, J. S. “The serotonin 5-HT2C receptor is a prominent serotonin receptor in basal ganglia: evidence from functional studies on serotonin-mediated phosphoinositide hydrolysis” J. Neurochem. 69: 1449–1458, 1997.
as §1

[3] = target: T3, human serotonin 5-HT2A receptor (Homo sapiens, UniProt P28223); assay: Radioligand binding assay, human 5-HT2A receptors ([3H]Ketanserin)
T3 construct: expressed in transfected cells; host or cells: CHO-K1
T3 sequence (P28223 whole entry): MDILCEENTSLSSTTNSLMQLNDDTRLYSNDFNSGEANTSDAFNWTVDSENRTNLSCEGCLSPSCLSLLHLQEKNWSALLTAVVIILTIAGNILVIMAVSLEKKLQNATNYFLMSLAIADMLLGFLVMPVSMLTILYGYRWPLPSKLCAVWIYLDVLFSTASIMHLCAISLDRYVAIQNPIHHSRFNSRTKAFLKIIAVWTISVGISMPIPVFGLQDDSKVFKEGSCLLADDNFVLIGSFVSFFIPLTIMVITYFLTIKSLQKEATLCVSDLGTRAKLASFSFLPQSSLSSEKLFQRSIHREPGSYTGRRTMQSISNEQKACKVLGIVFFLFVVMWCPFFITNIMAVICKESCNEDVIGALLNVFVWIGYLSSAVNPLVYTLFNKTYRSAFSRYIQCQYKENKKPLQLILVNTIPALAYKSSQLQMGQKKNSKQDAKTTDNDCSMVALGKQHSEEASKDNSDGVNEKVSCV
Procedure: as §2
CHO-K1 cells stably transfected with a plasmid encoding the human serotonin 5-HT2A receptor were used to prepare membranes in modified Tris-HCl pH 7.7 buffer using standard techniques. […] Non-specific binding was estimated in the presence of 1 μM mianserin. […] See Bonhaus, D. W. et al. “The pharmacology and distribution of human 5-hydroxytryptamine2B (5-HT2B) receptor gene products: comparison with 5-HT2A and 5-HT2C receptors” Brit. J. Pharmacol. 115: 622–628, 1995; and Saucier, C and Albert, P. R. “Identification of an endogenous 5-hydroxytryptamine2A receptor in NIH-3T3 cells: agonist-induced down-regulation involves decreases in receptor RNA and number” J. Neurochem. 68: 1998–2011, 1997.
as §1

[4] = target: T4, human serotonin 5-HT2B receptor (Homo sapiens, UniProt P41595); assay: Radioligand binding assay, human 5-HT2B receptors ([3H]LSD); conditions: human 5-HT2b; Example 16 table; read-out: IC50 (nM) 5-HT2b
T4 construct: expressed in transfected cells; host or cells: CHO-K1
T4 sequence (P41595 whole entry): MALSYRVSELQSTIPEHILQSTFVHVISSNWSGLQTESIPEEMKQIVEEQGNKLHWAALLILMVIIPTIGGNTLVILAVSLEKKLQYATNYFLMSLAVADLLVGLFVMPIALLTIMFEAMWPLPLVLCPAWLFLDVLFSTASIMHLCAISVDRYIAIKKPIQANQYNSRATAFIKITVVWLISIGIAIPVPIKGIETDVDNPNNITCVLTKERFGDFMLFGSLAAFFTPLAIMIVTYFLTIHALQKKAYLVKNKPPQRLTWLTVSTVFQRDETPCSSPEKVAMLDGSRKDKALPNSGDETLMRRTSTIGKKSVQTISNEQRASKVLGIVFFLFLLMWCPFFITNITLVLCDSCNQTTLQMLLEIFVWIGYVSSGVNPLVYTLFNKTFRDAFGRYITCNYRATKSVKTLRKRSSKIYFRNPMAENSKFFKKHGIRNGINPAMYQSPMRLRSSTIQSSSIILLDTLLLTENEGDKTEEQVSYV
Procedure: This assay measures binding of [^3H]LSD to human serotonin 5-HT2B receptors. CHO-K1 cells stably transfected with a plasmid encoding the human serotonin 5-HT2B receptor were used to prepare membranes in modified Tris-HCl pH 7.4 buffer using standard techniques. […] Non-specific binding was estimated in the presence of 10 μM serotonin. Membranes were filtered and washed 3 times and the filters were counted to determine [^3H]LSD specifically bound. See Bonhaus, D. W. et al. “The pharmacology and distribution of human 5-hydroxytryptamine2B (5-HT2B) receptor gene products: comparison with 5-HT2A and 5-HT2C receptors” Brit.
The human 5-HT2b screen was conducted according to Wolf, W. A. et al. J. Neurochem.

[5] = target: T5, human serotonin 5-HT6 receptor (Homo sapiens, UniProt P50406); assay: Radioligand binding assay, human 5-HT6 receptors ([3H]LSD); conditions: read-out: IC50 (nM) 5-HT6
T5 construct: expressed in transfected cells; host or cells: HeLa/E6-7
T5 sequence (P50406 whole entry): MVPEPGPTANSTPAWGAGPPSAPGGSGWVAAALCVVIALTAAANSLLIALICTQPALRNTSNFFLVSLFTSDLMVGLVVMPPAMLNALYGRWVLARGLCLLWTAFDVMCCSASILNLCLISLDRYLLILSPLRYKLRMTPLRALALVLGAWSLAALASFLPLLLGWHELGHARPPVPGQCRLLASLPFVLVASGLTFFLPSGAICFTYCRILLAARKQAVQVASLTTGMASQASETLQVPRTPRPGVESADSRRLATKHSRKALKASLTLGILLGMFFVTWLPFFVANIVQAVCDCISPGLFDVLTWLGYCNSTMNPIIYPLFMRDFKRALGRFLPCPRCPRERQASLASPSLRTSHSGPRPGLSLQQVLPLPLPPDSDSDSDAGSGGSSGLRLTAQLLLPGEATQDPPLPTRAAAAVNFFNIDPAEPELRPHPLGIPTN
Procedure: as §2
This assay measures binding of [^3H]LSD (lysergic acid diethylamide) to human serotonin 5-HT6 receptors. HeLa/E6–7 cells stably transfected with a plasmid encoding the human serotonin 5-HT6 receptor were used to prepare membranes in modified Tris-HCl pH 7.4 buffer using standard techniques. A 30 μg aliquot of membrane was incubated with 1.5 nM [^3H]LSD for 120 minutes at 37° C. Non-specific binding was estimated in the presence of 5 μM 5-HT. Membranes were filtered and washed 3 times and the filters were counted to determine [^3H]LSD specifically bound. See Monsma, Jr., F. J. et al. “Cloning and expression of a novel serotonin receptor with high affinity for tricyclic psychotropic drugs” Mol. Pharmacol. 43: 320–327, 1993.
as §1

[6] = Example 20 table, read-out: IC50 (nM) Against Human D3 Receptors
[7] = human 5-HT2c, Example 16 table, read-out: IC50 (nM) 5-HT2c
[8] = human 5-HT2a, Example 16 table, read-out: IC50 (nM) 5-HT2a
[9] = human, Example 100 table, read-out: IC50 (nM) D3
[10] = human, Example 100 table, read-out: IC50 (nM) 5-HT2C
[11] = human, Example 100 table, read-out: IC50 (nM) 5-HT2A

SMILES	IC50 [1, 9] [nM]	IC50 ([5]; human, Example 100 table) [nM]	IC50 [2, 10] [nM]	IC50 [3, 11] [nM]	further results
COc1ccc(C2(c3csc(N4CCN(C)CC4)n3)CCOCC2)cc1 [Compound 51]					IC50 [1, 6]: > 1000 nM; IC50 [2, 7]: > 1000 nM; IC50 [3, 8]: > 1000 nM; IC50 [4]: > 1000 nM; IC50 ([5]; human 5-HT6, Example 16 table): < 1000 nM
CN1CCN(c2nc(C3(c4ccc(OC(F)(F)F)cc4)CCOCC3)cs2)CC1 [Compound 55]					IC50 [1, 6]: < 1000 nM; IC50 [2, 7]: < 1000 nM; IC50 [3, 8]: < 1000 nM; IC50 [4]: > 1000 nM; IC50 ([5]; human 5-HT6, Example 16 table): > 1000 nM
CN1CCCC1CCNc1nc(C2(c3ccccc3F)CCCCC2)cs1 (single isomer, unassigned) [Compound 129, {4-[1-(2-fluorophenyl)-cyclohexyl]-thiazol-2-yl}-[2-(1-methyl-pyrrolidin-2-yl)-ethyl]-amine]	< 1000	< 1000	< 1000	< 1000	
Fc1ccccc1C1(c2csc(NCCCN3CCOCC3)n2)CCCC1 [Compound 96]	> 1000	> 1000	> 1000	> 1000	
Clc1ccc(C2(c3csc(NC4CCN(Cc5ccccc5)C4)n3)CCCCC2)cc1 (centres unmarked) [Compound 119]	> 1000	> 1000			
COc1ccccc1N1CCN(c2nc(C3(c4ccccc4F)CCCCC3)cs2)CC1 [Compound 97]	> 1000	> 1000	> 1000	> 1000	
CCN(CC)CCCNc1nc(C2(c3ccc(Cl)cc3)CCCCC2)cs1 [Compound 103]	< 1000	< 1000	< 1000	< 1000	
CNC1CCN(c2nc(C3(c4ccc(Cl)cc4)CCCCC3)cs2)C1 (centres unmarked) [Compound 106]	> 1000	> 1000	> 1000	> 1000	
Clc1ccc(C2(c3csc(NCCCN4CCOCC4)n3)CCCCC2)cc1 [Compound 94, {4-[1-(4-chloro-phenyl)-cyclohexyl]-thiazol-2-yl}-(3-morpholin-4-yl-propyl)-amine]	> 1000	< 1000	< 1000	> 1000	
CCN(CC)CCCNc1nc(C2(c3ccccc3F)CCCC2)cs1 [Compound 114]	> 1000	> 1000			
Clc1ccc(C2(c3csc(NCCN4CCOCC4)n3)CCCCC2)cc1 [Compound 102]	> 1000	< 1000			
Clc1ccc(C2(c3csc(NCCCN4CCOCC4)n3)CCCC2)cc1 [Compound 100]	> 1000	< 1000	< 1000	> 1000	
Clc1ccc(C2(c3csc(N4CCOCC4)n3)CCOCC2)cc1 [Compound 124, 4-{4-[4-(4-Chloro-phenyl)-tetrahydro-pyran-4-yl]-thiazol-2-yl}-morpholine]	> 1000	> 1000	> 1000	> 1000	
CCN1CCCC1CNc1nc(C2(c3ccccc3F)CCCCC2)cs1 (racemic) [Compound 131, (1-ethyl-pyrrolidin-2-ylmethyl)-{4-[1-(2-fluorophenyl)-cyclohexyl]-thiazol-2-yl}-amine]	< 1000	< 1000			
CN(C)C1CCN(c2nc(C3(c4ccccc4F)CCCCC3)cs2)C1 (racemic) [Compound 136, (1-{4-[1-(2-Fluoro-phenyl)-cyclohexyl]-thiazol-2-yl}-pyrrolidin-3-yl)-dimethylamine]	> 1000	> 1000			
Fc1ccccc1C1(c2csc(N3CCNCC3)n2)CCCCC1 [Compound 127, 1-{4-[1-(2-Fluorophenyl)-cyclohexyl]-thiazol-2-yl}-piperazine]	< 1000	< 100			
Fc1ccccc1C1(c2csc(N3CCN(Cc4ccc(Cl)cc4)CC3)n2)CCCC1 [Compound 110]	> 1000	> 1000			
CCN(CC)CCCNc1nc(C2(c3cccc(Cl)c3)CCOCC2)cs1 [Compound 98, N-{4-[4-(3-chloro-phenyl)-tetrahydro-pyran-4yl]-thiazol-2-yl}-N,N-diethyl-propane-1,3-diamine]	> 1000	> 1000			

Now from value to compound, other results behind:

IC50 [1, 9] [nM]	IC50 ([5]; human, Example 100 table) [nM]	SMILES	IC50 [2, 10] [nM]	IC50 [3, 11] [nM]	further results
> 1000	> 1000	CN(C)C1CCN(c2nc(C3(c4ccc(Cl)cc4)CCCCC3)cs2)C1 (centres unmarked) [Compound 117]			
> 1000	< 1000	CN(C)C1CCN(c2nc(C3(c4ccc(Cl)cc4)CCCC3)cs2)C1 (centres unmarked) [Compound 118]			
< 1000	< 1000	CN1CCCN(c2nc(C3(c4ccc(Cl)cc4)CCCCC3)cs2)CC1 [Compound 115]			
< 100	< 1000	CN1CCCN(c2nc(C3(c4ccc(Cl)cc4)CCCC3)cs2)CC1 [Compound 105]	< 1000	< 1000	
< 1000	> 1000	Clc1ccc(C2(c3csc(N4CCC(N5CCCCC5)CC4)n3)CCCCC2)cc1 [Compound 107]			
< 1000	< 100	Clc1ccc(C2(c3csc(N4CCNCC4)n3)CCCC2)cc1 [Compound 109]			
< 1000	< 1000	CN1CCCC1CCNc1nc(C2(c3ccc(Cl)cc3)CCCCC2)cs1 (centres unmarked) [Compound 95, {4-[1-(4-chloro-phenyl)-cyclohexyl]-thiazol-2-yl}-[2-(1-methyl-pyrrolidin-2-yl)-ethyl] amine]	< 1000	< 1000	
< 1000	< 1000	Clc1ccc(C2(c3csc(NCCN4CCCCC4)n3)CCCC2)cc1 [Compound 101]			
< 1000	< 100	CN1CCC(N(C)c2nc(C3(c4ccc(Cl)cc4)CCCCC3)cs2)C1 (centres unmarked) [Compound 108]			
